The results in this text go back to patent publication US9758477B2, “Sulfamoylbenzamide derivatives as antiviral agents against HBV infection” (priority 2011, dated 2017).

The subject of data set [1] is HBV. Kind of data set: Antiviral efficacy in AML12HBV10 cells, HBV DNA by dot-blot hybridization. It counts as cell-based, Hepatitis B virus (HBV). On the procedure:
The antiviral efficacy of the compounds of the disclosure, as presented in Tables 5, 6, 7, 8 and 9, were determined in AML12HBV10 cells. AML12HBV10 is an immortalized murine hepatocyte (AML12)-derived stable cell line that supports robust HBV replication in a tetracycline inducible manner (Xu et al.). The cells were seeded into 96 well plates at a density of 2×10^4 cells per well and cultured in DMEM/F12 media with 10% fetal bovine serum in the absence of tetracycline to allow pgRNA transcription and HBV DNA replication. One day after seeding, cells were left untreated or treated with a serial dilution of testing compounds, ranging from 50 μM to 0.39 μM, for 48 hours. Cells were then lysed by adding into each well of 100 μl lysis buffer containing 10 mM Tris-HCl (pH 7.6), 1 mM EDTA, 100 mM NaCl and 1% NP-40 and incubated at 37° C. for 30 minutes. Half amount (50 μl) of cell lysate from each well was combined with equal volume of denaturing solution containing 0.5N NaOH and 1.5M NaCl. After 5 minute incubation, 100 μl of neutralization solution (IM Tris-HCl, pH 7.4, 1.5M NaCl) was added into each well. The denatured cell lysates (totally 200 μl) were applied onto Nylon membrane using 96-well dot-blot manifold (Biorad). HBV DNA in the cell lysates were determined by dot-blot hybridization with alpha-^32P-UTP-labelled riboprobe specific for HBV minus strand DNA. The antiviral efficacy of a compound of the disclosure was expressed as the concentration that reduces the amount of HBV DNA by 50% (EC50).

The nature of data set [2]: Cytotoxicity in AML12HBV10 cells, MTT assay. The data set is classed as cell-based, murine. As to conditions: mouse; AML12HBV10 cells, 48 hours, MTT; read-out: CC50 (cellular toxicity). How it is done:
(§1) Determination of cytotoxicity of compounds of the disclosure in AML12HBV10 cells: To determine the cytotoxicity of the compounds, AML12HBV10 cells were seeded into 96-well plates at a density of 2×10^4 cells per well and cultured in DMEM/F12 media with 10% fetal bovine serum in the absence of tetracycline to allow pgRNA transcription and HBV DNA replication. One day after seeding, cells were left untreated or treated with a serial dilution of testing compounds, ranging from 50 μM to 0.39 μM, for 48 hours. The cell viability was measured by a MTT assay, following procedure provided by the manufacturer (Promega). The cytotoxicity of a compound was expressed as the concentration of compound that reduces the viability of the cells by 50% (CC50).

For data set [3], the system named is encapsidated pgRNA. Kind of data set: Encapsidated pgRNA by Northern blot in AML12HBV10 cells. It counts as cell-based, Hepatitis B virus (HBV). As to conditions: 2 days, FIG. 3 panel C, Bay41-4109 5 μM, AT-61 25 μM. How it is done:
(§2) To obtain mechanistic insight of the compounds of present invention against HBV, AML12HBV10 cells cultured in the 12-well plates were treated with a series of concentrations of DVR-1, DVR-56 or DVR-23 for two days in the absence of tetracycline (Guo et al., 2007). As positive controls, the cells were also treated with Bay41-4109 (5 μM) or AT-61 (25 μM), the known HBV nucleocapsid assembly effectors that either bind to HBV core protein dimmer to misdirect its interaction and prevent capsid formation (Bay41-4109) (Deres et al., 2003: Stray and Zlotnick, 2006), or interact with a core assembly intermediate and promote the formation of empty capsids (AT-61) (Feld et al., 2007; Katen et al., King et al., 1998). The amounts of intracellular viral mRNA, encapsidated pgRNA, capsids and nucleocapsid-associated HBV DNA were analyzed with the methods detailed below.
Determination of encapsidated pgRNA: AML12HBV10 cells were lysed by addition of 600 μl of lysis buffer (50 mM Tris-HCl [pH 7.5], 1 mM EDTA, 150 mM NaCl, 1% NP-40) into each well of 12-well plates. The nuclei were removed by centrifugation at 5,000 g for 10 minutes. One-half of the sample was mixed with 6 U of micrococcal nuclease (Pharmacia) and 15 μl of 100 mM CaCl2 and incubated for 15 minutes at 37° C. to digest free nucleic acids. The reaction was stopped with 6 μl of 0.5 M EDTA, and capsids were precipitated by adding 125 μl of 35% polyethylene glycol 8000 in 1.75 M NaCl to the reaction and incubating in ice for 30 minutes, followed by centrifugation at 6,000 g for 10 minutes at 4° C. Pellets were re-suspended in 50 μl of TNE buffer (10 mM Tris-HCl [pH 8], 100 mM NaCl, 1 mM EDTA), pgRNA was extracted by the addition of 1 ml of Trizol reagent. The encapsidated pgRNA were electrophoresed through a 2.2 M formaldehyde-1% agarose gel, transferred to a nylon membrane, and immobilized by UV cross-linking (Stratagene). Hybridization was performed with an alpha-^32P-UTP labeled riboprobe specific for plus strand of HBV genome.

Data set [4] has as its system HBV capsids. Description: Viral capsids by particle gel assay. The data set is classed as cell-based, Hepatitis B virus (HBV). As to conditions: AML12HBV10 cells, 2 days, FIG. 3 panel B; Bay41-4109 5 μM, AT-61 25 μM. On the procedure: as §2
Procedures of viral capsids and nucleocapsid-associated DNA analysis: HepDES19 cells were lysed by addition of 300 μl buffer containing 10 mM Tris-HCl (pH7.6), 100 mM NaCl, 1 mM EDTA and 0.1% NP-40 to each well of 12-well plate. […] HBV capsids were detected by probing the membrane with an antibody against HBV core protein (DAKO). […] The viral DNA was detected by hybridization with a α-^32P-UTP (800 Ci/mmol, Perkin Elmer) labeled minus strand specific full-length HBV riboprobe (Xu et al.).

For data set [5], the system named is capsid-associated HBV DNA. Kind of data set: Nucleocapsid-associated HBV DNA and DNA replication intermediates (particle gel hybridization, Southern blot). The data set is classed as cell-based, Hepatitis B virus (HBV). As to conditions: AML12HBV10 cells, 2 days, FIG. 3 panels D and E; Bay41-4109 5 μM, AT-61 25 μM. On the procedure:
as §2
Procedures of viral capsids and nucleocapsid-associated DNA analysis: HepDES19 cells were lysed by addition of 300 μl buffer containing 10 mM Tris-HCl (pH7.6), 100 mM NaCl, 1 mM EDTA and 0.1% NP-40 to each well of 12-well plate. […] HBV capsids were detected by probing the membrane with an antibody against HBV core protein (DAKO). […] The viral DNA was detected by hybridization with a α-^32P-UTP (800 Ci/mmol, Perkin Elmer) labeled minus strand specific full-length HBV riboprobe (Xu et al.). […]

For data set [6], the system named is AML12HBV10 cells. Description: Cytotoxicity in AML12HBV10 cells, MTT assay. The data set is classed as cell-based, murine. On the procedure: as §1
In data set [7] the test system is HBV. Kind of data set: Antiviral activity in HepDES19 cells, core-associated HBV DNA by Southern blot hybridization. As to conditions: Hepatitis B virus, 144 h, Table 10, HepDES19 cells, 6 days, unit inferred. It counts as cell-based. On the procedure:
FIG. 2 and Table 10, in human hepatoma-derived cell lines: To further confirm the antiviral activity of the compounds of the disclosure against HBV in human hepatocyte-derived cells, HepDES19 cells, a human hepatoma cell line supporting HBV replication in a tetracycline inducible manner (Guo et al., 2007), seeded into 12-well plates at a density of 5×10^5 cells per well and cultured in DMEM/F12 media with 10% fetal bovine serum and 1 μg/ml tetracycline. Two days after seeding, the cells were mock-treated or treated with a serial dilution of compounds of the disclosure, ranging from 10 μM to 0.018 μM, for 6 days in the absence of tetracycline. Upon the completion of treatment, cells were lysed by adding into each well of the 12-well plates 0.5 ml of lysis buffer containing 10 mM Tris-HCl (pH 8.0), 1 mM EDTA, 1% NP40 and 2% sucrose and incubating at 37° C. for 10 minutes. Cell debris and nuclei were removed by centrifugation and the supernatant was mixed with 130 μl of 35% polyethylene glycol (PEG) 8000 containing 1.5 M NaCl. After 1 hour incubation in ice, viral nucleocapsids were pelleted by centrifugation at 6,000×g for 5 min at 4° C., followed by 1 hour digestion at 37° C. in 400 μl of digestion buffer containing 0.5 mg/ml pronase (Calbiochem), 0.5% SDS, 150 mM NaCl, 25 mM Tris-HCl (pH 8.0) and 10 mM EDTA. The digestion mixture was extracted twice with phenol and DNA was precipitated with ethanol, dissolved in TE buffer (10 mM Tris-HCl, pH 8.0; 0.1 mM EDTA). One half of the DNA sample from each well was resolved by electrophoresis into a 1.5% agarose gel. The gel was then subjected to denaturation in a solution containing 0.5 M NaOH and 1.5 M NaCl, followed by neutralization in a buffer containing 1 M Tris-HCl (pH7.4) and 1.5 M NaCl. DNA was then blotted onto Hybond-XL membrane (GE Health care) in 20×SSC buffer. The amounts of cytoplasmic HBV core-associated HBV DNA were determined by Southern blot hybridization and the antiviral efficacy of a compound was expressed as its concentration that reduce the amount of HBV DNA by 50% (EC50) or 90% (EC90).

A short description of data set [8]: Cytotoxicity in HepDES19 cells, MTT assay. It counts as cell-based. As to conditions: human, Table 10, HepDES19 cells, unit inferred. How it is done:
as §1, with “human hepatoma-derived cell lines, HepDES19” for “AML12HBV10 cells: To determine the cytotoxicity of the compounds, AML12HBV10”, “2×10^4” left out, “tetracycline.” for “tetracycline to allow pgRNA transcription and HBV DNA replication.”, “6 days.” for “48 hours.”

[9] abbreviates: Hepatitis B virus, AML12HBV10 cells, 48 hours, concentration reducing HBV DNA by 50%, read-out: EC50 (antiviral activity by dot blot hybridization).
Setting [10] is: AML12HBV10 cells, 48 hours, concentration reducing HBV DNA by 50%, read-out: EC50 (antiviral activity by dot blot hybridization).
Where [11] appears, read: AML12HBV10 cells, 48 hours, MTT, read-out: CC50 (cellular toxicity).

Like-named read-outs stand apart in the source and are kept apart here.

Take `O=C(NCc1ccccc1)c1ccc2c(c1)NC(=O)c1ccccc1S2(=O)=O`: the EC50 in data set [1] (setting [9]) amounted to 8 µM. The 50% cytotoxic concentration (CC50) at 48 h in data set [2] is above 50 µM.
`O=C(N/C(C(=O)N1CCCCC1)=C(/Cl)c1ccccc1)c1ccccc1` [AT-61]: the “level of encapsidated pgRNA” value in data set [3] was “dose-dependently reduced”. The capsid formation result in data set [4] was “did not affect”. Also, the “capsid-associated HBV DNA / DNA synthesis” value in data set [5] is given as “dose-dependently reduced”.
`Cc1cccc(NC(=O)c2cc(S(N)(=O)=O)ccc2Cl)c1` [DVR-16]: the EC50 in data set [1] (setting [10]) came out at 6 µM. Also, the CC50 in data set [6] (setting [11]) is above 50 µM.
On to `NS(=O)(=O)c1cc(C(=O)Nc2cccc(C(F)(F)F)c2)ccc1F` [DVR-19], for which, in data set [1] (setting [10]), the EC50 is 9 µM. Besides, the CC50 in data set [6] (setting [11]) is above 50 µM.
For `NS(=O)(=O)c1cc(C(=O)Nc2cc(C(F)(F)F)ccc2Cl)ccc1F` [DVR-21] the same measures were 6.8 µM and above 50 µM.
For `NS(=O)(=O)c1cccc(C(=O)Nc2ccccc2)c1` [DVR-22] the same measures were 8 µM and above 50 µM.
In the case of `C=CCNS(=O)(=O)c1ccc(F)c(C(=O)Nc2ccc(F)c(F)c2)c1` [DVR-34], in data set [1] (setting [10]), the half-maximal effective concentration (EC50) amounted to 4 µM. The half-maximal cytotoxic concentration (CC50) in data set [6] (setting [11]) was above 50 µM.
Regarding `O=C(Nc1ccc(F)c(F)c1)c1cc(S(=O)(=O)NC2CCCCC2)ccc1F` [DVR-45, 5-cyclohexylsulfamoyl-N-(3,4-difluoro-phenyl)-2-fluoro-benzamide], the EC50 amounted to 0.8 µM in data set [1] (setting [9]); 0.8 µM in data set [1] (Hepatitis B virus, Table 10, AML12HBV10 cells, unit inferred, read-out: AML12HBV10 EC50); 0.48 µM in data set [7] (Southern blot). Besides, the cytotoxic concentration (CC50) at 48 h in data set [2] was above 50 µM. The CC50 in data set [6] (Table 10, AML12HBV10 cells, unit inferred, read-out: AML12HBV10 CC50) is above 50 µM. Further, in data set [7] (HBV DNA reduced by 90%), it took 2.11 µM to reach the 90% level (EC90). Also, the CC50 at 6 days in data set [8] was above 50 µM.
As for `COc1ccc(CCNS(=O)(=O)c2ccc(F)c(C(=O)Nc3ccc(Cl)cc3)c2)cc1OC` [DVR-91], the EC50 in data set [1] (setting [10]) worked out at 16.8 µM. In addition, the CC50 in data set [6] (setting [11]) is above 50 µM.
